# System: crabgrass (Digitaria sanguinalis L.): DIGSA
# Assay: Test Example 1 pre-emergence herbicidal activity, DIGSA
# Format: in vivo
# Conditions: Rate 63 g a.i./ha, visually observed 20th to 23rd day after application
# In short: (§1)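 Percent growth control, rated visually 20–23 d after a pre-emergence spray applied 1 d post-sowing; compound formulated as WP or EC in 500 L/ha water at a predetermined a.i. amount.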
row,SMILES,Pre-emergence Herbicidal Activity DIGSP (growth controlling degree)
1,COc1c(Cl)cc(F)c(-c2nn(C)c(OC(F)F)c2Cl)c1NC(=O)CCC1CCCCC1 [Compound 1-259],20%
2,COc1c(Cl)cc(F)c(-c2nn(C)c(OC(F)F)c2Cl)c1NC(=O)c1cccc(C)c1 [Compound 1-260],100%

# System: rice (Oryza sativa L.): ORYSA
# Assay: Test Example 1 pre-emergence herbicidal activity, ORYSA
# Format: in vivo
# Conditions: Rate 63 g a.i./ha, visually observed 20th to 23rd day after application
# In short: as §1
row,SMILES,Pre-emergence Herbicidal Activity ORYSA (growth controlling degree)
1,COc1c(Cl)cc(F)c(-c2nn(C)c(OC(F)F)c2Cl)c1NC(=O)CCC1CCCCC1 [Compound 1-259],0%
2,COc1c(Cl)cc(F)c(-c2nn(C)c(OC(F)F)c2Cl)c1NC(=O)c1cccc(C)c1 [Compound 1-260],50%

# System: velvetleaf (Abutilon theophrasti), ABUTH
# Assay: Test Example 2 post-emergence (foliage treatment) herbicidal activity, ABUTH
# Format: in vivo
# Conditions: 63 g a.i./ha
# In short: (§2)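 A small sprayer delivered the diluted WP or EC formulation (500 L/ha water, 0.1% v/v spreader) over emerged seedlings in upland soil pots. Damage relative to untreated plants was graded visually from 0 to 100% three weeks or so later (days 20-23).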
row,SMILES,"growth controlling degree, ABUTH"
1,COc1c(Cl)cc(F)c(-c2nn(C)c(OC(F)F)c2Cl)c1NC(=O)CCC1CCCCC1 [Compound 1-259],100%
2,COc1c(Cl)cc(F)c(-c2nn(C)c(OC(F)F)c2Cl)c1NC(=O)c1cccc(C)c1 [Compound 1-260],100%

# System: corn (Zea mays L.), ZEAMX
# Assay: Test Example 2 post-emergence (foliage treatment) herbicidal activity, ZEAMX
# Format: in vivo
# Conditions: 63 g a.i./ha
# In short: as §2
row,SMILES,"growth controlling degree, ZEAMX"
1,COc1c(Cl)cc(F)c(-c2nn(C)c(OC(F)F)c2Cl)c1NC(=O)CCC1CCCCC1 [Compound 1-259],0%
2,COc1c(Cl)cc(F)c(-c2nn(C)c(OC(F)F)c2Cl)c1NC(=O)c1cccc(C)c1 [Compound 1-260],60%

# System: wheat (Triticum aestivum L.), TRZAX
# Assay: Test Example 2 post-emergence (foliage treatment) herbicidal activity, TRZAX
# Format: in vivo
# Conditions: 63 g a.i./ha
# In short: as §2
row,SMILES,"growth controlling degree, TRZAX"
1,COc1c(Cl)cc(F)c(-c2nn(C)c(OC(F)F)c2Cl)c1NC(=O)CCC1CCCCC1 [Compound 1-259],0%
2,COc1c(Cl)cc(F)c(-c2nn(C)c(OC(F)F)c2Cl)c1NC(=O)c1cccc(C)c1 [Compound 1-260],40%

# System: prickly sida (Sida spinosa L.): SEDSP
# Assay: Test Example 1 pre-emergence herbicidal activity, SIDSP
# Format: in vivo
# Conditions: Rate 63 g a.i./ha, visually observed 20th to 23rd day after application
# In short: as §1
row,SMILES,Pre-emergence Herbicidal Activity SIDSP (growth controlling degree)
1,COc1c(Cl)cc(F)c(-c2nn(C)c(OC(F)F)c2Cl)c1NC(=O)CCC1CCCCC1 [Compound 1-259],30%
2,COc1c(Cl)cc(F)c(-c2nn(C)c(OC(F)F)c2Cl)c1NC(=O)c1cccc(C)c1 [Compound 1-260],70%

# System: soybean (Glycine max Merr.), GLXMA
# Assay: Test Example 2 post-emergence (foliage treatment) herbicidal activity, GLXMA
# Format: in vivo
# Conditions: 63 g a.i./ha
# In short: as §2
row,SMILES,"growth controlling degree, GLXMA"
1,COc1c(Cl)cc(F)c(-c2nn(C)c(OC(F)F)c2Cl)c1NC(=O)CCC1CCCCC1 [Compound 1-259],10%
2,COc1c(Cl)cc(F)c(-c2nn(C)c(OC(F)F)c2Cl)c1NC(=O)c1cccc(C)c1 [Compound 1-260],70%

# System: redroot pigweed (Amaranthus retroflexus L.), AMARE
# Assay: Test Example 2 post-emergence (foliage treatment) herbicidal activity, AMARE
# Format: in vivo
# Conditions: 63 g a.i./ha
# Text: Upland field soil was put into a 1/170,000 ha pot, and seeds of various plants were sown. Then, when the plants reached predetermined leaf stages {1. barnyardgrass (Echinochloa crus-galli L.), ECHCG: 1.1-2.1 leaf stage, 2. crabgrass (Digitaria sanguinalis L.), DIGSA: 1.0-2.0 leaf stage, 3. green foxtail (Setaria viridis L.), SETVI: 1.0-2.2 leaf stage, 4. redroot pigweed (Amaranthus retroflexus L.), AMARE: 0.1-1.5 leaf stage, 5. prickly sida (Sida spinosa L.), SIDSP: 0.1-0.6 leaf stage, 6. velvetleaf (Abutilon theophrasti), ABUTH: 0.1-0.6 leaf stage, 7. common cocklebur (Xanthium strumarium L.), XANST: 0.1 leaf stage, 8. rice (Oryza sativa L.), ORYSA; 1.0-2 leaf stage, 9. wheat (Triticum aestivum L.), TRZAX: 2.3-3.5 leaf stage, 10. corn (Zea mays L.), ZEAMXN 2.1-2.6 leaf stage, 11. soybean (Glycine max Merr.), GLXMA: primary leaf stage}, a wettable powder or emulsifiable concentrate having the compound of the present invention formulated in accordance with a usual formulation method, was weighed so that the active ingredient would be a predetermined amount, and diluted with water in an amount of 500 L/ha. To the diluted solution, 0.1% (v/v) of an agricultural spreader was added. The herbicide adjusted was applied by a small size sprayer for foliage treatment. On the 20th to 23rd day after the application of the herbicide, the growth of the respective plants was visually observed, and the herbicidal effects were evaluated by growth controlling degrees (%) ranging from 0 (equivalent to the untreated control) to 100 (complete kill), whereby the results shown in Table 5, were obtained. Compound Nos. in Table 5 correspond to Compound Nos. in Table 1 and 2 given hereinbefore.
row,SMILES,"growth controlling degree, AMARE"
1,COc1c(Cl)cc(F)c(-c2nn(C)c(OC(F)F)c2Cl)c1NC(=O)CCC1CCCCC1 [Compound 1-259],100%
2,COc1c(Cl)cc(F)c(-c2nn(C)c(OC(F)F)c2Cl)c1NC(=O)c1cccc(C)c1 [Compound 1-260],100%

# System: rice (Oryza sativa L.), ORYSA
# Assay: Test Example 2 post-emergence (foliage treatment) herbicidal activity, ORYSA
# Format: in vivo
# Conditions: 63 g a.i./ha
# In short: (§3)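 Each species was evaluated for growth suppression by eye, 0% matching untreated and 100% meaning death, some 20 to 23 days after a single post-emergence foliar treatment applied in 500 L/ha of water carrying 0.1% (v/v) agricultural spreader.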
row,SMILES,"growth controlling degree, ORYSA"
1,COc1c(Cl)cc(F)c(-c2nn(C)c(OC(F)F)c2Cl)c1NC(=O)CCC1CCCCC1 [Compound 1-259],10%
2,COc1c(Cl)cc(F)c(-c2nn(C)c(OC(F)F)c2Cl)c1NC(=O)c1cccc(C)c1 [Compound 1-260],60%

# System: barnyardgrass (Echinochloa crus-galli L.), ECHCG
# Assay: Test Example 2 post-emergence (foliage treatment) herbicidal activity, ECHCG
# Format: in vivo
# Conditions: 63 g a.i./ha
# In short: as §3
row,SMILES,"growth controlling degree, ECHCO"
1,COc1c(Cl)cc(F)c(-c2nn(C)c(OC(F)F)c2Cl)c1NC(=O)CCC1CCCCC1 [Compound 1-259],50%
2,COc1c(Cl)cc(F)c(-c2nn(C)c(OC(F)F)c2Cl)c1NC(=O)c1cccc(C)c1 [Compound 1-260],100%

# System: barnyardgrass (Echinochloa crus-galli L.): ECHCG
# Assay: Test Example 1 pre-emergence herbicidal activity, ECHCG
# Format: in vivo
# Conditions: Rate 63 g a.i./ha, visually observed 20th to 23rd day after application
# In short: as §1
row,SMILES,Pre-emergence Herbicidal Activity ECHCG (growth controlling degree)
1,COc1c(Cl)cc(F)c(-c2nn(C)c(OC(F)F)c2Cl)c1NC(=O)CCC1CCCCC1 [Compound 1-259],10%
2,COc1c(Cl)cc(F)c(-c2nn(C)c(OC(F)F)c2Cl)c1NC(=O)c1cccc(C)c1 [Compound 1-260],60%

# System: redroot pigweed (Amaranthus retroflexus L.): AMARE
# Assay: Test Example 1 pre-emergence herbicidal activity, AMARE
# Format: in vivo
# Conditions: Rate 63 g a.i./ha, visually observed 20th to 23rd day after application
# In short: as §1
row,SMILES,Pre-emergence Herbicidal Activity AMARE (growth controlling degree)
1,COc1c(Cl)cc(F)c(-c2nn(C)c(OC(F)F)c2Cl)c1NC(=O)CCC1CCCCC1 [Compound 1-259],100%
2,COc1c(Cl)cc(F)c(-c2nn(C)c(OC(F)F)c2Cl)c1NC(=O)c1cccc(C)c1 [Compound 1-260],100%

# System: corn (Zea mays L.): ZEAMX
# Assay: Test Example 1 pre-emergence herbicidal activity, ZEAMX
# Format: in vivo
# Conditions: Rate 63 g a.i./ha, visually observed 20th to 23rd day after application
# In short: as §1
row,SMILES,Pre-emergence Herbicidal Activity ZEAMX (growth controlling degree)
1,COc1c(Cl)cc(F)c(-c2nn(C)c(OC(F)F)c2Cl)c1NC(=O)CCC1CCCCC1 [Compound 1-259],0%
2,COc1c(Cl)cc(F)c(-c2nn(C)c(OC(F)F)c2Cl)c1NC(=O)c1cccc(C)c1 [Compound 1-260],10%

# System: wheat (Triticum aestivum L.): TRZAX
# Assay: Test Example 1 pre-emergence herbicidal activity, TRZAX
# Format: in vivo
# Conditions: Rate 63 g a.i./ha, visually observed 20th to 23rd day after application
# In short: as §1
row,SMILES,Pre-emergence Herbicidal Activity TRZAX (growth controlling degree)
1,COc1c(Cl)cc(F)c(-c2nn(C)c(OC(F)F)c2Cl)c1NC(=O)CCC1CCCCC1 [Compound 1-259],10%
2,COc1c(Cl)cc(F)c(-c2nn(C)c(OC(F)F)c2Cl)c1NC(=O)c1cccc(C)c1 [Compound 1-260],30%

# System: crabgrass (Digitaria sanguinalis L.), DIGSA
# Assay: Test Example 2 post-emergence (foliage treatment) herbicidal activity, DIGSA
# Format: in vivo
# Conditions: 63 g a.i./ha
# In short: as §3
row,SMILES,"growth controlling degree, DIGSP"
1,COc1c(Cl)cc(F)c(-c2nn(C)c(OC(F)F)c2Cl)c1NC(=O)CCC1CCCCC1 [Compound 1-259],30%
2,COc1c(Cl)cc(F)c(-c2nn(C)c(OC(F)F)c2Cl)c1NC(=O)c1cccc(C)c1 [Compound 1-260],95%

# System: green foxtail (Setaria viridis L.): SETVI
# Assay: Test Example 1 pre-emergence herbicidal activity, SETVI
# Format: in vivo
# Conditions: Rate 63 g a.i./ha, visually observed 20th to 23rd day after application
# In short: as §1
row,SMILES,Pre-emergence Herbicidal Activity SETVI (growth controlling degree)
1,COc1c(Cl)cc(F)c(-c2nn(C)c(OC(F)F)c2Cl)c1NC(=O)CCC1CCCCC1 [Compound 1-259],30%
2,COc1c(Cl)cc(F)c(-c2nn(C)c(OC(F)F)c2Cl)c1NC(=O)c1cccc(C)c1 [Compound 1-260],100%

# System: velvetleaf (Abutilon theophrasti): ABUTH
# Assay: Test Example 1 pre-emergence herbicidal activity, ABUTH
# Format: in vivo
# Conditions: Rate 63 g a.i./ha, visually observed 20th to 23rd day after application
# In short: as §1
row,SMILES,Pre-emergence Herbicidal Activity ABUTH (growth controlling degree)
1,COc1c(Cl)cc(F)c(-c2nn(C)c(OC(F)F)c2Cl)c1NC(=O)CCC1CCCCC1 [Compound 1-259],0%
2,COc1c(Cl)cc(F)c(-c2nn(C)c(OC(F)F)c2Cl)c1NC(=O)c1cccc(C)c1 [Compound 1-260],40%

# System: soybean (Glycine max Merr.): GLXMA
# Assay: Test Example 1 pre-emergence herbicidal activity, GLXMA
# Format: in vivo
# Conditions: Rate 63 g a.i./ha, visually observed 20th to 23rd day after application
# In short: as §1
row,SMILES,Pre-emergence Herbicidal Activity GLXMA (growth controlling degree)
1,COc1c(Cl)cc(F)c(-c2nn(C)c(OC(F)F)c2Cl)c1NC(=O)CCC1CCCCC1 [Compound 1-259],0%
2,COc1c(Cl)cc(F)c(-c2nn(C)c(OC(F)F)c2Cl)c1NC(=O)c1cccc(C)c1 [Compound 1-260],0%

# System: green foxtail (Setaria viridis L.), SETVI
# Assay: Test Example 2 post-emergence (foliage treatment) herbicidal activity, SETVI
# Format: in vivo
# Conditions: 63 g a.i./ha
# In short: as §2
row,SMILES,"growth controlling degree, SETVI"
1,COc1c(Cl)cc(F)c(-c2nn(C)c(OC(F)F)c2Cl)c1NC(=O)CCC1CCCCC1 [Compound 1-259],50%
2,COc1c(Cl)cc(F)c(-c2nn(C)c(OC(F)F)c2Cl)c1NC(=O)c1cccc(C)c1 [Compound 1-260],100%
